Results taken from patent US7101915B1, “P-terphenyl compounds” (Shionogi & Co., Ltd., priority 1996, dated 2006).
Converted amounts (≈) assume the structure as drawn.

Columns and labels:
Assay type in all cases: cell-based
Conditions in all cases: EL-4, TPA 10 ng/ml, 24 hours, ELISA; for IC50: Mus musculus, T-cell
[1] = test system: IL-2 production of mouse T cell strain EL-4 (TPA); test: Suppressive effect on the cytokine production of mouse T cell strain EL-4: IL-2
Procedure: (§1) Experiment 8 Suppressive Effect on the Cytokine Production of a Mouse T Cell Strain EL-4 In 48-well plate were added 2×10^5 mouse T cell strain EL-4 which were suspended in 0.2 ml of 1% fetal bovine serum-added RPMI 1640 medium (2 mM of sodium bicarbonate, 50 units/ml of penicillin, 50 μg/ml of streptomycin and 5×10^−5 M of 2-mercaptoethanol were added) and the compound of the present invention of a predetermined concentration. TPA was added as a cell stimulater at a final concentration of 10 ng/ml to adjust a final volume of each well to 0.4 ml. Each compound of the present invention was dissolved in DMSO and diluted with the above RPMI 1640 medium, and then for added at a final concentration of 100 ng/ml or less. The cells in the 48-well plate were cultivated in an incubator keeping the humidity 100%, carbon dioxide 5% and air 95% at 37° C. for 24 hours to collect a supernatant of each well. The amount of IL-2, IL-4 and IL-5 released in the medium of each well were measured with the ELISA kit (Amersham K. K.) to be taken as an index of the cytokine production of the cells. TPA free group (-TPA) was used as a control.

[2] = test system: IL-4 production of mouse T cell strain EL-4 (TPA); test: Suppressive effect on the cytokine production of mouse T cell strain EL-4: IL-4
Procedure: as §1

[3] = test system: IL-5 production of mouse T cell strain EL-4 (TPA); test: Suppressive effect on the cytokine production of mouse T cell strain EL-4: IL-5
Procedure: as §1

Row | SMILES | IC50 IL-2 [1] [µg/mL] | IC50 IL-4 [2] [µg/mL] | IC50 IL-5 [3] [µg/mL] | IC50 [1] [µg/mL] | IC50 [2] [µg/mL] | IC50 [3] [µg/mL]
1 | COc1cc(-c2ccc(F)cc2)c(OC)c(O)c1-c1ccc(OCc2ccccc2)c(O)c1 [Compound I-4] | >0.5 | 0.014 (≈ 0.0314 µM) | 0.12 (≈ 0.269 µM) |  |  | 
2 | COc1cc(-c2ccc(O)cc2)c(OC)c(O)c1-c1ccc(OC/C=C(\C)CCC=C(C)C)c(O)c1 [Compound I-37] | >0.5 | 0.007 (≈ 0.0143 µM) | 0.11 (≈ 0.224 µM) |  |  | 
3 | COc1cc(-c2ccc(OCC=C(C)C)c(OS(C)(=O)=O)c2)c(OC)cc1-c1ccc(OS(C)(=O)=O)cc1 [Compound I-70] | >2 | 0.0002 (≈ 0.000355 µM) | 1 (≈ 1.78 µM) |  |  | 
4 | COc1cc(-c2ccc(OS(C)(=O)=O)cc2)c(OC)c(OS(C)(=O)=O)c1-c1ccc(OCc2ccccc2)c(C=O)c1 [Compound I-83] | >10 | 0.14 (≈ 0.229 µM) | 1 (≈ 1.63 µM) |  |  | 
5 | COc1cc(-c2ccc(OS(C)(=O)=O)cc2)c(OC)c(OS(C)(=O)=O)c1-c1cc(C=O)c(OCC=C(C)C)c(OS(C)(=O)=O)c1 [Compound I-128] | >10 | 0.14 (≈ 0.204 µM) | 0.45 (≈ 0.657 µM) |  |  | 
6 | COc1cc(-c2ccc(OS(C)(=O)=O)cc2)c(OC)c(OS(C)(=O)=O)c1-c1ccc(OCc2ccccc2)c(C(N)=O)c1 [Compound I-148] | >10 | 0.1 (≈ 0.159 µM) | 11 (≈ 17.5 µM) |  |  | 
7 | COc1cc(-c2ccc(C(F)(F)F)cc2)c(OC)c(OS(C)(=O)=O)c1-c1ccc(OCC=C(C)C)c(OS(C)(=O)=O)c1 [Compound I-189] | >10 | 0.1 (≈ 0.159 µM) | 10 (≈ 15.9 µM) |  |  | 
8 | COc1cc(-c2ccc(C(F)(F)F)cc2)c(OC)c(O)c1-c1ccc(OCC=C(C)C)c(O)c1 [Compound I-190] | >0.1 | 0.007 (≈ 0.0148 µM) | 0.01 (≈ 0.0211 µM) |  |  | 
9 | COc1cc(-c2ccc(OS(C)(=O)=O)cc2)c(OC)c(OS(C)(=O)=O)c1-c1ccc(OCc2c(C)cc(C)cc2C)c(OS(C)(=O)=O)c1 [Compound I-202] | >2 | <0.02 | <0.02 |  |  | 
10 | COc1cc(-c2ccc(O)cc2)c(OC)c(O)c1-c1ccc(OCc2cc(C)cc(C)c2)c(O)c1 [Compound I-209] | >0.2 | 0.014 (≈ 0.0296 µM) | 0.012 (≈ 0.0254 µM) |  |  | 
11 | COc1cc(-c2ccc(O)cc2)c(OC)c(O)c1-c1ccc(OCC(C)=C(C)C)c(O)c1 [Compound I-213] | >1 | 0.025 (≈ 0.0573 µM) | 0.023 (≈ 0.0527 µM) |  |  | 
12 | COc1cc(-c2cccc(C(F)(F)F)c2)c(OC)c(O)c1-c1ccc(OCCC=C(C)C)c(O)c1 [Compound I-220] | >1 | 0.15 (≈ 0.307 µM) | 0.72 (≈ 1.47 µM) |  |  | 
13 | COc1cc(-c2ccc(O)cc2)c(OC)c(O)c1-c1ccc(SCc2ccccn2)c(O)c1 [Compound I-223] | 1 (≈ 2.17 µM) | 0.016 (≈ 0.0347 µM) | 0.045 (≈ 0.0975 µM) |  |  | 
14 | COc1cc(-c2ccc(O)cc2)c(OC)c(O)c1-c1ccc(S(=O)(=O)CC=C(C)C)c(O)c1 [Compound I-226] | 0.88 (≈ 1.87 µM) | 0.017 (≈ 0.0361 µM) | 0.3 (≈ 0.638 µM) |  |  | 
15 | COc1cc(-c2ccc(OS(C)(=O)=O)cc2)c(OC)c(C)c1-c1ccc(OCCC=C(C)C)c(OS(C)(=O)=O)c1 [Compound I-228] | >1 | 0.021 (≈ 0.0356 µM) | 0.03 (≈ 0.0508 µM) |  |  | 
16 | COc1cc(-c2ccc(O)cc2)c(OC)c(C)c1-c1ccc(OCCC=C(C)C)c(O)c1 [Compound I-229] | >1 | 0.042 (≈ 0.0967 µM) | 0.08 (≈ 0.184 µM) |  |  | 
17 | COc1cc(-c2ccc(OS(C)(=O)=O)cc2)c(OC)c(C)c1-c1ccc(OCc2ccc(C)cc2)c(OS(C)(=O)=O)c1 [Compound I-230] | >1 | 0.013 (≈ 0.0212 µM) | 0.02 (≈ 0.0326 µM) |  |  | 

Row | SMILES | IC50 IL-2 [1] [µg/mL] | IC50 IL-4 [2] [µg/mL] | IC50 IL-5 [3] [µg/mL] | IC50 [1] [µg/mL] | IC50 [2] [µg/mL] | IC50 [3] [µg/mL]
18 | COc1cc(-c2ccc(SC)cc2)c(OC)c(O)c1-c1ccc(OCc2ccccc2)c(O)c1 [Compound I-233] | >1 | 0.012 (≈ 0.0253 µM) | 0.0038 (≈ 0.00801 µM) |  |  | 
19 | COC(=O)c1ccc(-c2cc(OC)c(-c3ccc(OCc4ccccc4)c(O)c3)c(O)c2OC)cc1 [Compound I-237] | >0.1 | 0.017 (≈ 0.0349 µM) | 0.1 (≈ 0.206 µM) |  |  | 
20 | COC(=O)c1ccc(-c2cc(OC)c(-c3ccc(OCc4ccccc4)c(OS(C)(=O)=O)c3)c(OS(C)(=O)=O)c2OC)cc1 [Compound I-238] | >1 | 0.035 (≈ 0.0545 µM) | >1 |  |  | 
21 | COC(=O)c1ccc(-c2cc(OC)c(-c3ccc(OCc4ccc(C)cc4)c(OS(C)(=O)=O)c3)c(OS(C)(=O)=O)c2OC)cc1 [Compound I-239] |  |  |  | > 1 | 0.054 (≈ 0.0822 µM) | 0.9 (≈ 1.37 µM)
22 | COc1cc(-c2ccc(N(C)C)cc2)c(OC)c(OS(C)(=O)=O)c1-c1ccc(OCC=C(C)C)c(OS(C)(=O)=O)c1 [Compound I-242] | >1 | 0.1 (≈ 0.165 µM) | 0.88 (≈ 1.45 µM) |  |  | 
23 | COc1cc(-c2ccc(OS(C)(=O)=O)cc2)c(OC)c(CO)c1-c1ccc(OCc2ccccc2)c(CO)c1 [Compound I-243] |  |  |  | > 0.5 | 0.063 (≈ 0.114 µM) | > 0.55
24 | COc1cc(-c2ccc(C)cc2)c(OC)c(O)c1-c1ccc(OCCC=C(C)C)c(O)c1 [Compound I-279] | >1 | 0.038 (≈ 0.0875 µM) | 0.09 (≈ 0.207 µM) |  |  | 
25 | COc1ccccc1-c1cc(OC)c(-c2ccc(OCc3ccc(C)cc3)c(O)c2)c(O)c1OC [Compound I-282] | >0.5 | <0.005 | 0.13 (≈ 0.275 µM) |  |  | 
26 | COc1cc(-c2ccc(O)cc2)c(OC)c(O)c1-c1ccc(OC/C=C/CO)c(O)c1 [Compound I-296] | >1 | 0.07 (≈ 0.165 µM) | 0.047 (≈ 0.111 µM) |  |  | 
27 | COc1cc(-c2ccc(O)cc2)c(OC)c(O)c1-c1ccc(OCC=NNC(N)=O)c(O)c1 [Compound I-302] | >1 | 0.025 (≈ 0.0551 µM) | 0.28 (≈ 0.617 µM) |  |  | 
28 | COc1cc(-c2ccc(OS(C)(=O)=O)cc2)c(OC)c(OS(C)(=O)=O)c1-c1ccc(OCc2ccc(C(C)C)cc2)c(OS(C)(=O)=O)c1 [Compound I-305] | >1 | 0.01 (≈ 0.0139 µM) | 0.34 (≈ 0.472 µM) |  |  | 
29 | COc1cc(-c2ccc(OS(C)(=O)=O)cc2)c(OC)c(OS(C)(=O)=O)c1-c1ccc(OCc2ccc3ccccc3n2)c(OS(C)(=O)=O)c1 [Compound I-307] | >1 | 0.052 (≈ 0.0713 µM) | 0.023 (≈ 0.0315 µM) |  |  | 
30 | COc1cc(-c2ccc(O)cc2)c(OC)c(O)c1-c1ccc(OCc2ccc(C)cc2C)c(O)c1 [Compound I-309] | >0.5 | 0.029 (≈ 0.0614 µM) | 0.01 (≈ 0.0212 µM) |  |  | 
31 | COc1cc(-c2c(OC)cc(-c3ccc(OS(C)(=O)=O)cc3)c(OC)c2CO)c(OC)cc1OCc1ccc(C)cc1 [Compound I-368] | >1 | 0.072 (≈ 0.121 µM) | 0.38 (≈ 0.639 µM) |  |  | 
32 | COc1cc(-c2ccc(F)cc2)c(OC)c(C=O)c1-c1ccc(OCC=C(C)C)c(F)c1 [Compound I-379] | >1 | 0.088 (≈ 0.201 µM) | >1 |  |  | 
33 | COc1cc(-c2ccc(OS(C)(=O)=O)cc2)c(OC)c(OS(C)(=O)=O)c1-c1ccc(OCCC=C(C)C)cc1 [Compound I-387] | >1 | 0.075 (≈ 0.13 µM) | 0.04 (≈ 0.0694 µM) |  |  | 
